Values belong to the molecule of their own block, whether it stands above or below them.
Columns and labels:
F-actin in human PMNs = test: F-actin level in PMNs, rhodamine phalloidin binding; type: cell-based
[1] = type: in vitro ADME, human; conditions: lysed on ice for 5 min before addition of PCA, relative to samples receiving PCA <30 s after lysis; HPLC; not shown
G-actin = test: Non-denaturing PAGE and immunoblot of PMN supernatants for G-actin/TB4 complex; type: binding, human
muscle G-actin [2] = test: TB4 binding to muscle G-actin from rates of pyrenyl actin elongation; set-up: species or system rabbit
muscle G-actin [3] = conditions: cited from earlier work
[4] = tested on: platelet actin (cell actin); conditions: ref Weber et al., 1992, cited from earlier work
[5] = ref Safer et al., 1990; cited from earlier work
[6] = tested on: G-actin/TB4 complex in human PMNs; test: Change in G-actin/TB4 complex band after stimulation of PMNs; type: cell-based; conditions: 10^-7 M FNLLP, 30 s
pyrenyl G-actin = pyrenyl G-actin (Oryctolagus cuniculus, UniProt P68135); type: biochemical, rabbit

Molecule: C=C1[C@@H](C)[C@H]2[C@H](Cc3ccccc3)NC(=O)[C@]23OC(=O)/C=C/[C@H](O)CCC[C@@H](C)C/C=C/[C@H]3[C@@H]1O [cytochalasin B]
effect on chemoattractant induced increase in F-actin (F-actin in human PMNs; cytochalasin B with FNLLP, 2 μM in Fig. 3a): blocks the chemoattractant induced in- crease in F-actin

effect of preincubation with TB4 on polymerization rate (muscle G-actin [2]; 2 μM pyrenyl G-actin with 5 μM TB4, F-actin nuclei): slower rate of polymerization
time for slope to shift to that of preincubated samples (muscle G-actin [2]; 5 μM TB4 added after polymerization started, mixing interval, all n = 7 samples): ≤ 6 s
kon (rate constant of binding), minimal (muscle G-actin [2]; bovine spleen TB4 5 μM, 2 μM pyrenyl muscle G-actin, Equation 1, SD 0.003, n = 7): > 45000 M⁻¹ s⁻¹
koff, minimal (muscle G-actin [2]; from Kd and minimal kon, muscle actin): greater than 0.09 s-1
Molecule: Thymosin beta 4 [TB4]
TB4 remaining in cell lysate [1]: 95%
PMN band antibody reactivity (actin and TB4) (G-actin; immunoblot of band with mobility similar to actin/TB4 complex): reacts positively with antibodies to both actin
fraction of G-actin migrating like G-actin/T beta 4 complex (G-actin; supernatants from resting PMNs, 7.5% non-denaturing gels): a large fraction of G-actin in supernatants prepared from resting PMNs has a mobility similar to the G- actin/T beta 4 complex
kinetics of bovine spleen T beta 4 binding to muscle pyrenyl G-actin (muscle G-actin [2]): sufficiently rapid to accommodate the rapid changes in actin polymerization and depolymerization observed in vivo
Kd (muscle G-actin [3]; read-out: Kd for muscle actin (literature), ref Weber et al., 1992): 2 µM
kon (literature) (muscle G-actin [3]; ref Goldschmidt-Clermont et al. (1992)): 0.75 s⁻¹
effect of PIPs on binding (muscle G-actin [3]; ref Janmey et al., 1992): nor affected by PIPs
binding to pyrene vs unlabeled muscle actin (muscle G-actin [3]; ref Weber et al., 1992): binds equally well to pyrene and unlabeled muscle actin
calcium sensitivity of binding (muscle G-actin [3]; ref Weber et al., 1992): neither calcium sensitive
Kd ([4]; read-out: Kd for platelet / cell actin): 0.6 µM
affinity for nonmuscle vs muscle actin [4]: approximately threefold higher
activity after boiling [5]: remains active after boiling

F-actin upon stimulation (F-actin in human PMNs; 10^-7 M FNLLP, 30 s, n = 6): 200 + 42 % of the amount in resting cel
F-actin increase upon stimulation (Fig. 3a) (F-actin in human PMNs; 10^-7 M FNLLP, 30 s, single representative experiment of Fig. 3): 1.5 fold
slope of pyrenyl actin polymerization in stimulated cell supernatant (pyrenyl G-actin; Fig. 4, R2 = 0.777, resting supernatant slope 13.6, 10^-7 M FNLLP, 30 s): 6.1 fluorescent U/min
inhibitory activity of boiled supernatants, resting vs stimulated (pyrenyl G-actin; boiled supernatants from resting and FNLLP-stimulated cells, not shown): approximately equal inhibitory activity
Molecule: formylnorleucyileucylphenylalanine [FNLLP]
TB4 staining of actin/TB4 band after stimulation, anti-TB4 immunoblot ([6]; 23°C, n = 6): 53 + 9 % of the resting cell level
intensity of G-actin/TB4 band, Coomassie blue ([6]; non-denaturing gel): reduces the intensity of the G-actin/T~4 band
F-actin of stimulated vs resting cells (Fig. 4 experiment) (F-actin in human PMNs; 10^-7 M FNLLP, 30 s, not shown): approximately twice
rate of pointed end polymerization in stimulated supernatant (Fig. 4) (pyrenyl G-actin; single experiment of Fig. 4, 10^-7 M FNLLP, 30 s): 45 % of the rate in the resting supernatant

Reference: publication PMC2289708 (The Journal of Cell Biology, 1992)
